{"source": "ChEMBL document CHEMBL1145868", "about": "“Small, low nanomolar, noncovalent thrombin inhibitors lacking a group to fill the 'distal binding pocket'” (Bioorg Med Chem Lett, 2003)", "key": {"Trypsin": {"biological_target": "Trypsin (Homo sapiens, UniProt P07477+P07478+P35030)", "assay": "Inhibition of trypsin in human plasma", "format": "cell-free"}, "Homo sapiens [1]": {"organism": "Homo sapiens", "assay": "Concentration required to double the human activated partial thromboplastin time in human plasma", "format": "functional"}, "Prothrombin": {"biological_target": "Prothrombin (Homo sapiens, UniProt P00734)", "assay": "Inhibition of thrombin in human plasma", "format": "cell-free"}, "Homo sapiens [2]": {"organism": "Homo sapiens", "assay": "Protein binding affinity in human plasma, expressed as percent unbound (free)", "format": "functional"}}, "data": [{"smiles": "Cc1cc(C(F)(F)F)c(N)c(=O)n1CC(=O)NCc1cc(Cl)ccc1OCC(=O)NCCCN(C)C", "values": [{"measurement": "Ki", "setting": "Trypsin", "value": 11000, "unit": "nM"}, {"measurement": "Concentration", "setting": "Homo sapiens [1]", "value": 0.7, "unit": "µM"}, {"measurement": "Ki", "setting": "Prothrombin", "value": 7.4, "unit": "nM"}, {"measurement": "Unbound", "setting": "Homo sapiens [2]", "value": 18, "unit": "%"}]}, {"smiles": "Cc1cc(C(F)(F)F)c(N)c(=O)n1CC(=O)NCc1cc(Cl)ccc1OCC(=O)N(C)C", "values": [{"measurement": "Ki", "setting": "Trypsin", "value": "> 100000", "unit": "nM"}]}, {"smiles": "CCNC(=O)COc1ccc(Cl)cc1CNC(=O)Cn1c(C)cnc(NCCc2ccccc2)c1=O", "values": [{"measurement": "Ki", "setting": "Trypsin", "value": 1000, "unit": "nM"}, {"measurement": "Concentration", "setting": "Homo sapiens [1]", "value": 1.2, "unit": "µM"}, {"measurement": "Ki", "setting": "Prothrombin", "value": 0.07, "unit": "nM"}, {"measurement": "Unbound", "setting": "Homo sapiens [2]", "value": 1, "unit": "%"}]}, {"smiles": "Cc1nc(N)ccc1CNC(=O)Cn1c(C)cnc(N)c1=O", "values": [{"measurement": "Ki", "setting": "Trypsin", "value": 23000, "unit": "nM"}, {"measurement": "Ki", "setting": "Prothrombin", "value": 900, "unit": "nM"}]}, {"smiles": "Cc1nc(N)ccc1CNC(=O)Cn1c(C)cnc(NCCc2ccccc2)c1=O", "note": "[L-375378]", "values": [{"measurement": "Ki", "setting": "Trypsin", "value": 1800, "unit": "nM"}, {"measurement": "Concentration", "setting": "Homo sapiens [1]", "value": 0.41, "unit": "µM"}, {"measurement": "Unbound", "setting": "Homo sapiens [2]", "value": 6, "unit": "%"}]}, {"smiles": "Cc1ccc(NS(=O)(=O)Cc2ccccc2)c(=O)n1CC(=O)NCc1cccc(Cl)c1", "values": [{"measurement": "Ki", "setting": "Trypsin", "value": 20000, "unit": "nM"}, {"measurement": "Concentration", "setting": "Homo sapiens [1]", "value": 2.8, "unit": "µM"}, {"measurement": "Ki", "setting": "Prothrombin", "value": 7, "unit": "nM"}]}, {"smiles": "CCNC(=O)COc1ccc(Cl)cc1CNC(=O)Cn1c(C)cc(C(F)(F)F)c(N)c1=O", "values": [{"measurement": "Ki", "setting": "Trypsin", "value": 10000, "unit": "nM"}, {"measurement": "Concentration", "setting": "Homo sapiens [1]", "value": 2.1, "unit": "µM"}, {"measurement": "Ki", "setting": "Prothrombin", "value": 8.5, "unit": "nM"}]}, {"smiles": "CCNC(=O)COc1ccc(Cl)cc1CNC(=O)Cn1c(C)cnc(N)c1=O", "values": [{"measurement": "Ki", "setting": "Trypsin", "value": 7200, "unit": "nM"}, {"measurement": "Concentration", "setting": "Homo sapiens [1]", "value": 1.6, "unit": "µM"}, {"measurement": "Ki", "setting": "Prothrombin", "value": 12, "unit": "nM"}, {"measurement": "Unbound", "setting": "Homo sapiens [2]", "value": 20, "unit": "%"}]}, {"smiles": "CCNC(=O)COc1ccc(Cl)cc1CNC(=O)[C@@H]1CCCN1C(=O)[C@H](N)C1CCCCC1", "values": [{"measurement": "Ki", "setting": "Trypsin", "value": 23000, "unit": "nM"}, {"measurement": "Concentration", "setting": "Homo sapiens [1]", "value": 0.41, "unit": "µM"}, {"measurement": "Unbound", "setting": "Homo sapiens [2]", "value": 15, "unit": "%"}]}, {"smiles": "N[C@@H](C(=O)N1CCC[C@H]1C(=O)NCc1cc(Cl)ccc1Cl)C1CCCCC1", "values": [{"measurement": "Ki", "setting": "Trypsin", "value": 29000, "unit": "nM"}, {"measurement": "Concentration", "setting": "Homo sapiens [1]", "value": 0.95, "unit": "µM"}, {"measurement": "Unbound", "setting": "Homo sapiens [2]", "value": 4, "unit": "%"}]}, {"smiles": "Cc1nc(N)ccc1CNC(=O)Cn1c(C)cc(C(F)(F)F)c(N)c1=O", "values": [{"measurement": "Ki", "setting": "Trypsin", "value": 20000, "unit": "nM"}, {"measurement": "Ki", "setting": "Prothrombin", "value": 340, "unit": "nM"}]}, {"smiles": "Cc1ccc(NS(=O)(=O)Cc2ccccc2)c(=O)n1CC(=O)NCc1cc(Cl)ccc1Cl", "values": [{"measurement": "Ki", "setting": "Trypsin", "value": 100000, "unit": "nM"}, {"measurement": "Concentration", "setting": "Homo sapiens [1]", "value": 2.7, "unit": "µM"}, {"measurement": "Ki", "setting": "Prothrombin", "value": 24, "unit": "nM"}]}, {"smiles": "CCNC(=O)COc1ccc(Cl)cc1CNC(=O)Cn1c(C)ccc(NS(=O)(=O)Cc2ccccc2)c1=O", "values": [{"measurement": "Ki", "setting": "Trypsin", "value": 2000, "unit": "nM"}, {"measurement": "Concentration", "setting": "Homo sapiens [1]", "value": 0.79, "unit": "µM"}, {"measurement": "Ki", "setting": "Prothrombin", "value": 0.04, "unit": "nM"}]}, {"smiles": "CNC(=O)COc1ccc(Cl)cc1CNC(=O)Cn1c(C)cc(C(F)(F)F)c(N)c1=O", "values": [{"measurement": "Ki", "setting": "Trypsin", "value": 7100, "unit": "nM"}, {"measurement": "Concentration", "setting": "Homo sapiens [1]", "value": 2.5, "unit": "µM"}, {"measurement": "Ki", "setting": "Prothrombin", "value": 15, "unit": "nM"}]}, {"smiles": "Cc1cc(C(F)(F)F)c(N)c(=O)n1CC(=O)NCc1cc(Cl)ccc1OCC(=O)NCCN(C)C", "values": [{"measurement": "Ki", "setting": "Trypsin", "value": 14000, "unit": "nM"}, {"measurement": "Concentration", "setting": "Homo sapiens [1]", "value": 1.3, "unit": "µM"}, {"measurement": "Ki", "setting": "Prothrombin", "value": 18, "unit": "nM"}]}]}
